# Reference: patent US20250388582A1, “NOVEL BICYCLIC HETEROARYL COMPOUND AND USE THEREOF” (ILDONG PHARMACEUTICAL CO., LTD., priority 2022, published 2025)
# Experiments:
# human GST-PIKFYVE = biological target: T1, human GST-PIKFYVE (Homo sapiens, UniProt Q9Y2I7); assay: ADP-Glo kinase assay, enzyme inhibition activity against human PIKFYVE (Carna biosciences); format: biochemical; details: inhibitory activity at final compound concentration 10 nM; 1 hour at room temperature
# T1 construct: GST; purchased Carna biosciences 11-118
# T1 sequence (Q9Y2I7 whole entry): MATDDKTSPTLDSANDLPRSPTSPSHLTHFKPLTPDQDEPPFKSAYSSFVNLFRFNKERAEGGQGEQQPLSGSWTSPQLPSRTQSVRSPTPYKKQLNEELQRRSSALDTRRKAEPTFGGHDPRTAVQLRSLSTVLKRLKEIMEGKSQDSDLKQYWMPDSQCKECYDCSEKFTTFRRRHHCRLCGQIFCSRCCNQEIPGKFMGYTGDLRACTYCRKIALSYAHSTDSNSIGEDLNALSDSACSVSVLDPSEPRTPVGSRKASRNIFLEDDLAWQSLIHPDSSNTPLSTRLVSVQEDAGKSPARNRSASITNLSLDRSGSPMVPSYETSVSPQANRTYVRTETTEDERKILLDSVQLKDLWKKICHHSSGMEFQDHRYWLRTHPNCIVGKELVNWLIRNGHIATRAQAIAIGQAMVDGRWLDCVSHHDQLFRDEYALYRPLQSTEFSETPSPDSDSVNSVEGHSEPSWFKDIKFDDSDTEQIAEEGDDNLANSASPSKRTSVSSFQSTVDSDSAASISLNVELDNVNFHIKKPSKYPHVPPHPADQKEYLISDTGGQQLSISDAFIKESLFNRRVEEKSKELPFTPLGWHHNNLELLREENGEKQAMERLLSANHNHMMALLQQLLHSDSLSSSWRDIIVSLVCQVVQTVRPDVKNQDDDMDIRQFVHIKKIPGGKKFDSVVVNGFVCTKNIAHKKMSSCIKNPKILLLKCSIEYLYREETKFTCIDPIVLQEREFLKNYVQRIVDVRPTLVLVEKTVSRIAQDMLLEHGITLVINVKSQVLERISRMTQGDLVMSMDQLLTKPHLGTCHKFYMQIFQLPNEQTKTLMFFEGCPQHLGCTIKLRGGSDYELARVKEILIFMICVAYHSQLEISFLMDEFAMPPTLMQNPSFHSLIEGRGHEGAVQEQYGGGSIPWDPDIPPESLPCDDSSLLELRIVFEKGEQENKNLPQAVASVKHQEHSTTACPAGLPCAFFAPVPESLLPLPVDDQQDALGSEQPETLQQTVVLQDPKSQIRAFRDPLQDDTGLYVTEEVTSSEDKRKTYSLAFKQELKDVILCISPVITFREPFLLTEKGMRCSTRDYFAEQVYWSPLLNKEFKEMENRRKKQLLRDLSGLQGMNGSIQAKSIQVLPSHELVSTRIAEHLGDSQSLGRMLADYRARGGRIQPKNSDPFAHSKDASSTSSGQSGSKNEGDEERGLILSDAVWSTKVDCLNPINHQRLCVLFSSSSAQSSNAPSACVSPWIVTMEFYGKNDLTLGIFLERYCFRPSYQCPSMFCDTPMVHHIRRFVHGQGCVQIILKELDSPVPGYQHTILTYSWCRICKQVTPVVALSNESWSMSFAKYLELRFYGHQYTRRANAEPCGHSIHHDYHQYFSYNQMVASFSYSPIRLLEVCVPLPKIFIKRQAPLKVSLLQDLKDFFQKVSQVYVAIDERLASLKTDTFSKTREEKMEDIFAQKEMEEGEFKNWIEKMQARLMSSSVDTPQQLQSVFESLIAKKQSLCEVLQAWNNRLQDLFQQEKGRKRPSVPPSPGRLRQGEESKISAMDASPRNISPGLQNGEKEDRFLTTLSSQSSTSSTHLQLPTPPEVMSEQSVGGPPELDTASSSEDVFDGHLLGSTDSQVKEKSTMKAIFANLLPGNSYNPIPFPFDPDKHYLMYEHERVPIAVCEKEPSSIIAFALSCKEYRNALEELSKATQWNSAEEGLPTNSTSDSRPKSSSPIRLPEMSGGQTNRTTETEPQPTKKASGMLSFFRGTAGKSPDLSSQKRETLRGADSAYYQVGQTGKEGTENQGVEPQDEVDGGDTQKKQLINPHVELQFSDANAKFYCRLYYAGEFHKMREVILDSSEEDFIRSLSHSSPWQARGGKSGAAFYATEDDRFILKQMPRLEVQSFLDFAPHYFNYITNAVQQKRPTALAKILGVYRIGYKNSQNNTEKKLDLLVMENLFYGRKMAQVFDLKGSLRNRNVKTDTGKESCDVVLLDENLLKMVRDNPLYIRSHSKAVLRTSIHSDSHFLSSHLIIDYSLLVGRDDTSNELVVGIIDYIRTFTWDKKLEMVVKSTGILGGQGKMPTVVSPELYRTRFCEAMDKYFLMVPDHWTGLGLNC
# Method: The enzyme inhibition activity values for the compounds according to Examples against human PIKFYVE were calculated using the ADP-Glo™ kinase assay service of Carna biosciences, Inc. The enzyme activity evaluation method provided by Carna biosciences Inc., is shown below.
# Enzyme inhibition activity was evaluated by reacting the compounds according to Examples with human GST-PIKFYVE (11-118, Carna biosciences), which was purified using glutathione Sepharose chromatography. The reaction buffer used was composed of 50 mmol/L MOPS, 1 mmol/L DTT, and pH 7.2, and all reactions of the test distilled water were performed in the buffer.
# Compounds were prepared as solutions in 100% DMSO as 100× stocks and adjusted to have a final sample concentration of 10 nM.
# The substrate-enzyme reaction for PIKFYVE was performed by mixing 5 μL human GST-PIKFYVE, 5 μL compounds according to Examples, 5 μL enzyme substrate, and 5 μL purified ATP and reacting for 1 hour at room temperature. After the substrate-enzyme reaction, 20 μL ADP-Glo™ Reagent was added and reacted at room temperature for 40 minutes, then 40 μL Kinase Detection Reagent was added and reacted at room temperature for 40 minutes.
# After completion of the reaction, the degree of enzyme activity inhibition was measured by luminescence. The fluorescence of the enzyme activity in the solvent control group […] was set to 100%, and the fluorescence of the enzyme activity in the solvent control group without compound treatment was set to 0%. The inhibitory activity of each compound according to Examples was calculated based on these values.
# PIKFYVE = biological target: T2, PIKFYVE (Homo sapiens, UniProt Q9Y2I7); assay: NanoBRET TE Intracellular Kinase Assay, interaction of PIKFYVE and compounds in HEK293 cells; format: cell-based; details: IC50 class from BRET; HEK293 cells expressing PIKFYVE-NanoLuc; 2 hours incubation
# T2 construct: host or cells: HEK293 (ATCC, CRL-1573)
# T2 sequence (Q9Y2I7 whole entry): as above
# Method: To predict the efficacy of the compounds according to Example on PIKFYVE in humans, the interaction between PIKFYVE and the compounds was tested using the HEK293 cell line derived from human embryonic kidney (ATCC, CRL-1573) via NanoBRETT TE Intracellular Kinase Assay Service of Carna biosciences Inc., (Japan). The evaluation method provided by Carna biosciences Inc., was shown below and the NanoBRET™ TE Intracellular Kinase Assay, K-8 Kit (Promega, CS1810C88) was used.
# The HEK-293 cells cultured in Opti-MEM™ I Reduced Serum Medium (Thermo Fisher, 11058-021) were transfected with Transfection Carrier DNA (Promega, E4881), PIKFYVE-NanoLuc Fusion Vector (Promega, CS1810C225), and FuGENE HD Transfection Reagent (Promega, E2311) to produce cells expressing genes combining PIKFYVE and NanoLuc, followed by culturing 100 μl (2×10^5 cells/ml) each in 96-well plates (Corning, 3917).
# 10× compounds according to Examples or Comparative Examples prepared by concentration in 1× NanoBRET™ tracer reagent and DMSO were reacted in 96-well plates and incubated for 2 hours in a 37° C., 5% CO2 incubator.
# After the reaction was completed, 3× Complete NanoBRET™ Nano-Glo Substrate solution was added to each well, and the reaction was allowed to run for 2-3 minutes at room temperature before BRET was measured using a GloMax Discover Multimode Microplate Reader (Promega).
Structure (SMILES),"ADP-Glo kinase assay (%, 10 nM) (human GST-PIKFYVE) [%]",IC50 (PIKFYVE) [nM]
"Cc1cccc(/C=N/Nc2nc(N3CCOCC3)nc3c2ncn3Cc2ccccn2)c1 [Example 20, (E)-4-(6-(2-(3-methylbenzylidene)hydrazinyl)-9-(pyridin-2-ylmethyl)-9H-purin-2-yl)morpholine]",78.53,10 to 20
"Cc1cccc(/C=N/Nc2nc(N3CCOCC3)nc3c2ncn3CC2CC2)c1 [Example 21, (E)-4-(9-(cyclopropylmethyl)-6-(2-(3-methylbenzylidene)hydrazinyl)-9H-purin-2-yl)morpholine]",60.95,20 to 30
"Cc1cccc(/C=N/Nc2nc(N3CCOCC3)nc3c2ncn3CC(=O)c2ccccc2)c1 [Example 22, (E)-2-(6-(2-(3-methylbenzylidene)hydrazinyl)-2-morpholino-9H-purin-9-yl)-1-phenylethan-1-one]",66.19,10 to 20
"Cc1cccc(/C=N/Nc2nc(N3CCOCC3)nc3c2ncn3CC(=O)c2ccc(Cl)cc2)c1 [Example 25, (E)-1-(4-chlorophenyl)-2-(6-(2-(3-methylbenzylidene)hydrazinyl)-2-morpholino-9H-purin-9-yl)ethan-1-one]",72.46,10 to 20
"Cc1cccc(/C=N/Nc2nc(N3CCOCC3)nc3c2ncn3CC(F)(F)c2ccccn2)c1 [Example 26, (E)-4-(9-(2,2-difluoro-2-(pyridin-2-yl)ethyl)-6-(2-(3-methylbenzylidene)hydrazinyl)-9H-purin-2-yl)morpholine]",80.87,10 to 20
"Cc1cccc(/C=N/Nc2nc(N3CCOCC3)nc3c2ncn3CC(=O)c2cccnc2)c1 [Example 28, (E)-2-(6-(2-(3-methylbenzylidene)hydrazinyl)-2-morpholino-9H-purin-9-yl)-1-(pyridin-3-yl)ethan-1-one]",65.48,20 to 30
"Cc1cccc(/C=N/Nc2nc(N3CCOCC3)nc3c2ncn3CC(=O)c2cccn2C)c1 [Example 30, (E)-1-(1-methyl-1H-pyrrol-2-yl)-2-(6-(2-(3-methylbenzylidene)hydrazinyl)-2-morpholino-9H-purin-9-yl)ethan-1-one]",76.90,10 to 20
"Cc1cccc(/C=N/Nc2nc(N3CCOCC3)nc3c2ncn3CC(=O)c2ccncc2)c1 [Example 32, (E)-2-(6-(2-(3-methylbenzylidene)hydrazinyl)-2-morpholino-9H-purin-9-yl)-1-(pyridin-4-yl)ethan-1-one]",59.60,20 to 30
"Cc1cccc(/C=N/Nc2nc(N3CCOCC3)nc3c2ncn3CC(=O)c2ccc(C#N)cc2)c1 [Example 35, (E)-4-(2-(6-(2-(3-methylbenzylidene)hydrazinyl)-2-morpholino-9H-purin-9-yl)acetyl)benzonitrile]",70.11,10 to 20
"Cc1cccc(/C=N/Nc2nc(N3CCOCC3)nc3c2ncn3CC(=O)c2cccc(C#N)c2)c1 [Example 36, (E)-3-(2-(6-(2-(3-methylbenzylidene)hydrazinyl)-2-morpholino-9H-purin-9-yl)acetyl)benzonitrile]",76.04,10 to 20
"COc1ccccc1C(=O)Cn1cnc2c(N/N=C/c3cccc(C)c3)nc(N3CCOCC3)nc21 [Example 37, (E)-1-(2-methoxyphenyl)-2-(6-(2-(3-methylbenzylidene)hydrazinyl)-2-morpholino-9H-purin-9-yl)ethan-1-one]",89.07,≤ 10
"Cc1cccc(/C=N/Nc2nc(N3CCOCC3)nc3c2ncn3CC(=O)c2ccccc2C)c1 [Example 40, (E)-2-(6-(2-(3-methylbenzylidene)hydrazinyl)-2-morpholino-9H-purin-9-yl)-1-(o-tolyl)ethan-1-one]",86.29,≤ 10
